How the values were obtained:
RS4;11 cells = assay: Cell viability assay, MTS, 48 h, RS4;11; format: cell-based; settings: Homo sapiens, RS4-11, 48 h, 48 hours, read-out: IC50 (48 hours) RS4;11
Procedure: (§1) Acute lymphoblastic leukemia cells (MOLT-4 and RS4; 11) or small cell lung cancer (NCI-H146 or simply H146) were incubated with increasing concentrations of Bcl-xL degraders for 48 h. Cell viability was measured by tetrazolium-based MTS assay.

MOLT-4 cells = assay: Cell viability assay, MTS, 48 h, MOLT-4; format: cell-based; settings: Homo sapiens, MOLT-4, 48 h, 48 hours, read-out: IC50 (48 hours) MOLT-4
Procedure: as §1

| Structure (SMILES) | IC50 (RS4;11 cells) | IC50 (MOLT-4 cells) |
| --- | --- | --- |
| Cc1ncsc1-c1ccc([C@H](C)NC(=O)[C@@H]2C[C@@H](O)CN2C(=O)[C@@H](NC(=O)CCCCCCC(=O)NC2CCN(CC3(C)CCC(c4ccc(Cl)cc4)=C(CN4CCN(c5ccc(C(=O)NS(=O)(=O)c6ccc(N[C@H](CCN7CCOCC7)CSc7ccccc7)c(S(=O)(=O)C(F)(F)F)c6)cc5)CC4)C3)CC2)C(C)(C)C)cc1 (stereo partly drawn) [degrader #38, N1-(1-((4′-chloro-4-methyl-6-((4-(4-(((4-(((R)-4-morpholino-1-(phenylthio)butan-2-yl)amino)-3-((trifluoromethyl)sulfonyl)phenyl)sulfonyl)carbamoyl)phenyl)piperazin-1-yl)methyl)-2,3,4,5-tetrahydro-[1,1′-biphenyl]-4-yl)methyl)piperidin-4-yl)-N8-((S)-1-((2S,4R)-4-hydroxy-2-(((S)-1-(4-(4-methylthiazol-5-yl)phenyl)ethyl)carbamoyl)pyrrolidin-1-yl)-3,3-dimethyl-1-oxobutan-2-yl)octanediamide] | < 0.05 µM | 0.05 to 0.15 µM |
| Cc1ncsc1-c1ccc([C@H](C)NC(=O)[C@@H]2C[C@@H](O)CN2C(=O)[C@@H](NC(=O)CCCCC#CC#CC2(C)CCC(c3ccc(Cl)cc3)=C(CN3CCN(c4ccc(C(=O)NS(=O)(=O)c5ccc(N[C@H](CCN6CCOCC6)CSc6ccccc6)c(S(=O)(=O)C(F)(F)F)c5)cc4)CC3)C2)C(C)(C)C)cc1 (stereo partly drawn) [degrader #11, (2S,4R)-1-((2S)-2-(9-(4′-chloro-4-methyl-6-((4-(4-(((4-(((R)-4-morpholino-1-(phenylthio)butan-2-yl)amino)-3-((trifluoromethyl)sulfonyl)phenyl)sulfonyl)carbamoyl)phenyl)piperazin-1-yl)methyl)-2,3,4,5-tetrahydro-[1,1′-biphenyl]-4-yl)nona-6,8-diynamido)-3,3-dimethylbutanoyl)-4-hydroxy-N—((S)-1-(4-(4-methylthiazol-5-yl)phenyl)ethyl)pyrrolidine-2-carboxamide] | > 0.5 µM | > 0.5 µM |
| Cc1ncsc1-c1ccc([C@H](C)NC(=O)[C@@H]2C[C@@H](O)CN2C(=O)[C@@H](NC(=O)CCCCCCC(=O)N2CCC3(CCN(CC4(C)CCC(c5ccc(Cl)cc5)=C(CN5CCN(c6ccc(C(=O)NS(=O)(=O)c7ccc(N[C@H](CCN8CCOCC8)CSc8ccccc8)c(S(=O)(=O)C(F)(F)F)c7)cc6)CC5)C4)CC3)CC2)C(C)(C)C)cc1 (stereo partly drawn) [degrader #29, (2S,4R)-1-((2S)-2-(8-(9-((4′-chloro-4-methyl-6-((4-(4-(((4-(((R)-4-morpholino-1-(phenylthio)butan-2-yl)amino)-3-((trifluoromethyl)sulfonyl)phenyl)sulfonyl)carbamoyl)phenyl)piperazin-1-yl)methyl)-2,3,4,5-tetrahydro-[1,1′-biphenyl]-4-yl)methyl)-3,9-diazaspiro[5.5]undecan-3-yl)-8-oxooctanamido)-3,3-dimethylbutanoyl)-4-hydroxy-N—((S)-1-(4-(4-methylthiazol-5-yl)phenyl)ethyl)pyrrolidine-2-carboxamide] | < 0.05 µM | < 0.05 µM |
| Cc1ncsc1-c1ccc([C@H](C)NC(=O)[C@@H]2C[C@@H](O)CN2C(=O)[C@@H](NC(=O)CCCCC(=O)N2CC3(CCN(CC4(C)CCC(c5ccc(Cl)cc5)=C(CN5CCN(c6ccc(C(=O)NS(=O)(=O)c7ccc(N[C@H](CCN8CCOCC8)CSc8ccccc8)c(S(=O)(=O)C(F)(F)F)c7)cc6)CC5)C4)CC3)C2)C(C)(C)C)cc1 (stereo partly drawn) [degrader #30, (2S,4R)-1-((2S)-2-(6-(7-((4′-chloro-4-methyl-6-((4-(4-(((4-(((R)-4-morpholino-1-(phenylthio)butan-2-yl)amino)-3-((trifluoromethyl)sulfonyl)phenyl)sulfonyl)carbamoyl)phenyl)piperazin-1-yl)methyl)-2,3,4,5-tetrahydro-[1,1′-biphenyl]-4-yl)methyl)-2,7-diazaspiro[3.5]nonan-2-yl)-6-oxohexanamido)-3,3-dimethylbutanoyl)-4-hydroxy-N—((S)-1-(4-(4-methylthiazol-5-yl)phenyl)ethyl)pyrrolidine-2-carboxamide] | < 0.05 µM | 0.05 to 0.15 µM |
| CC1(CNC(=O)COCCOCCOCCNc2cccc3c2C(=O)N(C2CCC(=O)NC2=O)C3=O)CCC(c2ccc(Cl)cc2)=C(CN2CCN(c3ccc(C(=O)NS(=O)(=O)c4ccc(N[C@H](CCN5CCOCC5)CSc5ccccc5)c(S(=O)(=O)C(F)(F)F)c4)cc3)CC2)C1 (stereo partly drawn) [compound 78, 4-(4-((4′-chloro-4-(13-((2-(2,6-dioxopiperidin-3-yl)-1,3-dioxoisoindolin-4-yl)amino)-3-oxo-5,8,11-trioxa-2-azatridecyl)-4-methyl-3,4,5,6-tetrahydro-[1,1′-biphenyl]-2-yl)methyl)piperazin-1-yl)-N-((4-(((R)-4-morpholino-1-(phenylthio)butan-2-yl)amino)-3-((trifluoromethyl)sulfonyl)phenyl)sulfonyl)benzamide] | < 0.05 µM | < 0.05 µM |
| CC1(CNC(=O)CCCCCCCCNc2cccc3c2C(=O)N(C2CCC(=O)NC2=O)C3=O)CCC(c2ccc(Cl)cc2)=C(CN2CCN(c3ccc(C(=O)NS(=O)(=O)c4ccc(N[C@H](CCN5CCOCC5)CSc5ccccc5)c(S(=O)(=O)C(F)(F)F)c4)cc3)CC2)C1 (stereo partly drawn) [compound 74, 4-(4-((4′-chloro-4-((9-((2-(2,6-dioxopiperidin-3-yl)-1,3-dioxoisoindolin-4-yl)amino)nonanamido)methyl)-4-methyl-3,4,5,6-tetrahydro-[1,1′-biphenyl]-2-yl)methyl)piperazin-1-yl)-N-((4-(((R)-4-morpholino-1-(phenylthio)butan-2-yl)amino)-3-((trifluoromethyl)sulfonyl)phenyl)sulfonyl)benzamide] | 0.05 to 0.15 µM | < 0.05 µM |
| Cc1ncsc1-c1ccc([C@H](C)NC(=O)[C@@H]2C[C@@H](O)CN2C(=O)[C@@H](NC(=O)CCCCCCC(=O)N2CCN(C(=O)C3(C)CCC(c4ccc(Cl)cc4)=C(CN4CCN(c5ccc(C(=O)NS(=O)(=O)c6ccc(N[C@H](CCN7CCOCC7)CSc7ccccc7)c(S(=O)(=O)C(F)(F)F)c6)cc5)CC4)C3)CC2)C(C)(C)C)cc1 (stereo partly drawn) [compound 65, (2S,4R)-1-((2S)-2-(8-(4-(4′-chloro-4-methyl-6-((4-(4-(((4-(((R)-4-morpholino-1-(phenylthio)butan-2-yl)amino)-3-((trifluoromethyl)sulfonyl)phenyl)sulfonyl)carbamoyl)phenyl)piperazin-1-yl)methyl)-2,3,4,5-tetrahydro-[1,1′-biphenyl]-4-carbonyl)piperazin-1-yl)-8-oxooctanamido)-3,3-dimethylbutanoyl)-4-hydroxy-N—((S)-1-(4-(4-methylthiazol-5-yl)phenyl)ethyl)pyrrolidine-2-carboxamide] | < 0.05 µM | < 0.05 µM |
| Cc1ncsc1-c1ccc([C@H](C)NC(=O)[C@@H]2C[C@@H](O)CN2C(=O)[C@@H](NC(=O)CCCCCC#CC#CC2(C)CCC(c3ccc(Cl)cc3)=C(CN3CCN(c4ccc(C(=O)NS(=O)(=O)c5ccc(N[C@H](CCN6CCOCC6)CSc6ccccc6)c(S(=O)(=O)C(F)(F)F)c5)cc4)CC3)C2)C(C)(C)C)cc1 (stereo partly drawn) [degrader #12, (2S,4R)-1-((2S)-2-(10-(4′-chloro-4-methyl-6-((4-(4-(((4-(((R)-4-morpholino-1-(phenylthio)butan-2-yl)amino)-3-((trifluoromethyl)sulfonyl)phenyl)sulfonyl)carbamoyl)phenyl)piperazin-1-yl)methyl)-2,3,4,5-tetrahydro-[1,1′-biphenyl]-4-yl)deca-7,9-diynamido)-3,3-dimethylbutanoyl)-4-hydroxy-N—((S)-1-(4-(4-methylthiazol-5-yl)phenyl)ethyl)pyrrolidine-2-carboxamide] | > 0.5 µM | > 0.5 µM |
